Test results: patent US20100094001A1, “C[…]-IMPROVED CH[…] DERIVATIVE AND PROCESS FOR PRODUCING SAME” (Eisai R&D Management Co., Ltd., priority 2007, published 2010)

Experiment: Stability experiment for the addition of tri-n-butylamine: sealed storage at 40-50° C., content (purity) by 1H-NMR
Type: physicochemical
Procedure: From the point of view of securing storage stability, for the amount of the first tertiary amine added, at least 2.0 mol % is added based on Compound (6), preferably at least 3.0 mol %, more preferably at least 4.0 mol %, and even more preferably at least 5.0 mol %. Note that evaluation of storage stability can be carried out by calculation of peak area derived from Compound (6) by gas chromatography or high performance liquid chromatography or calculation of integration value by 1H-NMR or P-NMR measurement before and after storage.
Potassium di-tert-butyl phosphate (6 g), dipotassium hydrogenphosphate (16.6 g), tetrabutylammonium hydrogen sulfate (0.81 g), tert-butyl methyl ether (28 mL) and water (21 mL) were added in a 100 mL two-neck round bottom flask equipped with a thermometer, and stirred under cooling with a water bath. At an internal temperature of 21° C., a solution of chloromethyl chlorosulfonate (5.88 g) dissolved in tert-butyl methyl ether (5.88 mL) was added dropwise over two hours at an internal temperature of 25° C. or lower. After termination of the drop wise addition, the solution was stirred for two hours, water (21 mL) and tert-butyl methyl ether (28 mL) were added thereto, the lower layer was separated and the organic layer was washed with an aqueous solution of 2M dipotassium hydrogen phosphate (21 mL). After washing twice with water (21 mL), bath temperature was set to 35° C., and the solution was concentrated under a reduced pressure to obtain 5.38 g of the title compound (yield: 86%). […]
As a result, contents (purity) of respectively 92% and 96% prior to storage were 89% and 70% after sealed storage at 40° C. for 12 hours and further at 50° C. for 12 hours, and were 87% and 0% (completely degraded) after sealed storage further at 50° C. for 10 hours, such that the one added with tri-n-butylamine was stable. The content (purity) was calculated by 1H-NMR measurements with 4-thiomethyl acetophenone as internal standard substance.

CC(C)(C)OP(=O)(OCCl)OC(C)(C)C [Not added, di-tert-butyl chloromethyl phosphate]
Content (%) (Initial (prior to storage)): 96% | Content (%) (Sealed storage at 40° C. for 12 hours then further at 50° C. for 12 hours): 70% | Content (%) (Sealed storage further at 50° C. for 10 hours (after 40° C. 12 hours and 50° C. 12 hours)): 0%
